Measurements from patent US20130274210A1, “DENDRIMERS WITH A SACCHARIDE ENDING FOR ANTI-INFLAMMATORY PURPOSES” (UNIVERSITE PAUL SABATIER TOULOUSE III, priority 2010, published 2013).

Columns and labels:
[1] = tested on: human dendritic cells stimulated with LPS; settings: stimulation by LPS, via DC-SIGN receptor; background statement; cited from earlier work
[2] = Solubility (properties of prepared molecules); format: physicochemical

In the case of Mannosylated lipoarabinomannan [ManLAM], the “production of IL-10 by human dendritic cells” value [1] is listed as “increase in the production of IL-10” and the “production of pro-inflammatory cytokines by human dendritic cells” value [1] is listed as “decrease in the production of pro-inflammatory cytokines”.

With `NNC(=O)CCOC1OC(CO)C(O)C(O)C1O` (centres unmarked) the solubility [2] was “soluble in H2O, MeOH, DMF”.

In the case of `NNC(=O)CCCCCCCCOC1OC(CO)C(O)C(O)C1OC1OC(CO)C(O)C(O)C1OC1OC(CO)C(O)C(O)C1O` (centres unmarked), the solubility [2] is reported as “soluble in H2O, MeOH, DMF”.

For `NNC(=O)CCCCCCCCOC1OC(CO)C(O)C(O)C1OC1OC(CO)C(O)C(O)C1O` (centres unmarked), the solubility [2] was “soluble in H2O, MeOH, DMF”.
